From ChEMBL document CHEMBL3588751, “A new antibacterial octaketide and cytotoxic phenylethanoid glycosides from Pogostemon cablin (Blanco) Benth” (Bioorg Med Chem Lett, 2015)
Converted amounts (≈) assume the structure as drawn.

What was measured:
SK-MEL-2 = assay: Cytotoxicity against human SK-MEL-2 cells assessed as inhibition of cell growth incubated for 48 hrs by SRB assay; assay type: functional, cell-based; details: SK-MEL-2, 48 h
SK-OV-3 = assay: Cytotoxicity against human SKOV3 cells assessed as inhibition of cell growth incubated for 48 hrs by SRB assay; assay type: functional, cell-based; details: SK-OV-3, 48 h
Candida albicans = assay: Antimicrobial activity against Candida albicans ATCC 10231 incubated for 48 hrs by broth dilution method; assay type: functional, organism-based; details: ATCC 10231, 48 h
Saccharomyces cerevisiae = assay: Antimicrobial activity against Saccharomyces cerevisiae ATCC 9763 incubated for 48 hrs by broth dilution method; assay type: functional, organism-based; details: ATCC 9763, 48 h
A549 = assay: Cytotoxicity against human A549 cells assessed as inhibition of cell growth incubated for 48 hrs by SRB assay; assay type: functional, cell-based; details: A549, 48 h
Bacillus subtilis = assay: Antimicrobial activity against Bacillus subtilis ATCC 6633 incubated for 48 hrs by broth dilution method; assay type: functional, organism-based; details: ATCC 6633, 48 h
Staphylococcus aureus = assay: Antimicrobial activity against Staphylococcus aureus BAA-2313 incubated for 48 hrs by broth dilution method; assay type: functional, organism-based; details: BAA-2313, 48 h
HCT-15 = assay: Cytotoxicity against human HCT15 cells assessed as inhibition of cell growth incubated for 48 hrs by SRB assay; assay type: functional, cell-based; details: HCT-15, 48 h

Compound	IC50 (Candida albicans) [µg/mL]	IC50 (Saccharomyces cerevisiae) [µg/mL]	IC50 (Bacillus subtilis) [µg/mL]	MIC (Bacillus subtilis) [µg/mL]	IC50 (Staphylococcus aureus) [µg/mL]	MIC (Staphylococcus aureus) [µg/mL]	IC50 (SK-MEL-2) [µM]	IC50 (SK-OV-3) [µM]	IC50 (A549) [µM]	IC50 (HCT-15) [nM]	MFC (Candida albicans) [µg/mL]	MFC (Saccharomyces cerevisiae) [µg/mL]
CC[C@@H](C)C(=O)c1c(O)cc(O)cc1CC(=O)O	> 200	> 200	84.1 (≈ 333 µM)	150 (≈ 595 µM)	140 (≈ 556 µM)	200 (≈ 793 µM)	> 30	> 30	> 30	> 30000		
C[C@@H]1[C@H](O)[C@@H](C)/C=C/C=C/C=C/C=C/C=C/C=C/C=C/[C@H](O[C@@H]2O[C@H](C)[C@@H](O)[C@H](N)[C@@H]2O)C[C@@H]2O[C@](O)(C[C@@H](O)C[C@@H](O)[C@H](O)CC[C@@H](O)C[C@@H](O)CC(=O)O[C@H]1C)C[C@H](O)[C@H]2C(=O)O [AMPHOTERICIN B]	2.1 (≈ 2.27 µM)	0.5 (≈ 0.541 µM)									5 (≈ 5.41 µM)	5 (≈ 5.41 µM)
COc1cccc2c1C(=O)c1c(O)c3c(c(O)c1C2=O)C[C@@](O)(C(=O)CO)C[C@@H]3O[C@H]1C[C@H](N)[C@H](O)[C@H](C)O1 [DOXORUBICIN]										109		
CN[C@@H]1[C@H](O[C@H]2[C@H](O[C@H]3[C@H](O)[C@@H](O)[C@H](N=C(N)N)[C@@H](O)[C@@H]3N=C(N)N)O[C@@H](C)[C@]2(O)C=O)O[C@@H](CO)[C@H](O)[C@H]1O.CN[C@@H]1[C@H](O[C@H]2[C@H](O[C@H]3[C@H](O)[C@@H](O)[C@H](N=C(N)N)[C@@H](O)[C@@H]3N=C(N)N)O[C@@H](C)[C@]2(O)C=O)O[C@@H](CO)[C@H](O)[C@H]1O.O=S(=O)(O)O.O=S(=O)(O)O.O=S(=O)(O)O [STREPTOMYCIN SULFATE]			4.5	5	8.5	10						

Continued, in another order:

IC50 (Candida albicans) [µg/mL]	IC50 (Saccharomyces cerevisiae) [µg/mL]	IC50 (Bacillus subtilis) [µg/mL]	MIC (Bacillus subtilis) [µg/mL]	IC50 (Staphylococcus aureus) [µg/mL]	MIC (Staphylococcus aureus) [µg/mL]	Compound	IC50 (SK-MEL-2) [µM]	IC50 (SK-OV-3) [µM]	IC50 (A549) [µM]	IC50 (HCT-15) [nM]	MFC (Candida albicans) [µg/mL]	MFC (Saccharomyces cerevisiae) [µg/mL]
> 200	> 200	106 (≈ 169 µM)	150 (≈ 240 µM)	165 (≈ 264 µM)	200 (≈ 320 µM)	C[C@@H]1O[C@@H](O[C@@H]2[C@@H](O)[C@H](OCCc3ccc(O)c(O)c3)O[C@H](CO)[C@@H]2OC(=O)/C=C/c2ccc(O)c(O)c2)[C@H](O)[C@H](O)[C@H]1O	4.5	9.52	6.78	7030		
> 200	> 200	98.5 (≈ 158 µM)	150 (≈ 240 µM)	156 (≈ 249 µM)	200 (≈ 320 µM)	C[C@@H]1O[C@@H](O[C@@H]2[C@@H](O)[C@H](OCCc3ccc(O)c(O)c3)O[C@H](CO)[C@H]2OC(=O)/C=C/c2ccc(O)c(O)c2)[C@H](O)[C@H](O)[C@H]1O [ACETOSIDE]	8.52	7.61	5.81	2730		
